In article PMC5974420, “Isospecific adenine DNA methyltransferases show distinct preferences towards DNA substrates” (Scientific Reports, 2018):

Key:
M.LlaCI = molecular target: T1, M.LlaCI (Lactococcus lactis, UniProt O86267); assay: radiometric [3H]methyl transfer to DNA; assay type: biochemical; settings: 0.2 µM [methyl-3H]SAM, 0.15 µM ds oligo (AAGCTT site), 10 mM Tris-HCl pH 7.0, 37 °C, 1 h; labelled compound
T1 construct: gene mllaci

M.HindIII = molecular target: T2, M.HindIII (Haemophilus influenzae, UniProt P43871); settings: 0.2 µM [methyl-3H]SAM, 0.15 µM ds oligo (AAGCTT site), 10 mM Tris-HCl pH 7.0, 37 °C, 1 h; labelled compound
T2 construct: gene hindIIIM
T2 sequence (P43871 whole entry): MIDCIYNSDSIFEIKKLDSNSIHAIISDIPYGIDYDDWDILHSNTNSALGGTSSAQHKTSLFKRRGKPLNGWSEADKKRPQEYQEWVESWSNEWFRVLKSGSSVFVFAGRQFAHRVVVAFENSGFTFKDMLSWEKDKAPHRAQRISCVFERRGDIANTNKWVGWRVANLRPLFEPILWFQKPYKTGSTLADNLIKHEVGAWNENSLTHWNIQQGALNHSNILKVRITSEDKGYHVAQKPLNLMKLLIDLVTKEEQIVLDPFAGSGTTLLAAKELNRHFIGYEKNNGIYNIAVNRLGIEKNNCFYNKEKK

purified protein = substrate: C[S+](CC[C@H](N)C(=O)O)C[C@H]1O[C@@H](n2cnc3c(N)ncnc32)[C@H](O)[C@@H]1O; assay: purified protein; settings: 10 µM unmethylated ds oligo AAGCTT1/AAGCTT2 (AAGCTT site), 10 mM Tris-HCl pH 7.0, 37 °C, 5 min, 135 nM enzyme, labelled compound

T1 sequence (O86267 1-296): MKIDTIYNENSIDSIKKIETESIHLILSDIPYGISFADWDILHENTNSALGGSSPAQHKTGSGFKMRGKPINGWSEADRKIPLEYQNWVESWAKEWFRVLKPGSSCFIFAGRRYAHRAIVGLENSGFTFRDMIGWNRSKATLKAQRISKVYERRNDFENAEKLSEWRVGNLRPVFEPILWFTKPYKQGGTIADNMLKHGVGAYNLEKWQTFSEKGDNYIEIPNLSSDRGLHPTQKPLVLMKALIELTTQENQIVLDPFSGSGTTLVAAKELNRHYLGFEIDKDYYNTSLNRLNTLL

Molecule: C[S+](CC[C@H](N)C(=O)O)C[C@H]1O[C@@H](n2cnc3c(N)ncnc32)[C@H](O)[C@@H]1O (stereo partly drawn) [AdoMet]
- radiometric [3H]methyl transfer to DNA (M.LlaCI): monitoring transfer of the radioactively labelled methyl groups from [^3H]AdoMet to DNA
- radiometric [3H]methyl transfer to DNA (M.HindIII): monitoring transfer of the radioactively labelled methyl groups from [^3H]AdoMet to DNA

B1: M.EcoVIII (Escherichia coli) (protein)
chain: MLNKIQLPDEIKKNTVTNGNSISLIKKLPSQYAHLILSDIPYGIGAEDWDVLHNNSNNAYLGSSPAQKNAGAIFKKRGKPINGWSEADKKIPLEYQQWCEEWATEWFRVLKPGASAIIFAGRRFSHRCICAMEDAGFNLRDIIAWMRVKAPHRAQRLSCVYERRGDTLNAEKWNGWRVGNLQPTFEPILWFSKPYKIGGTIADNAIIHGVGAYNQDAFVARNGKPENVITAGFSSNESGLHPTQKPVALMKTLIELTTQKGQLVIDPFSGSGSTLVAAKDLGRDYIGFEINPTYVETSIKRLNK
- Km (purified protein): 0.27 ± 0.006 µM
